Results on 92 compounds are retold here after PubChem BioAssay AID1053172 (The Scripps Research Institute Molecular Screening Center, 2014).

Calls of active or inactive are those of the source. How the calls were made is not given here.

For the test, the target named is HIV-1 integrase / human LEDGF/p75 complex. The experiment in a line: inhibitors of HIV-1 IN-LEDGF/p75 DNA integration, dose response, biochemical, TR-FRET (AID 1053172). (In TR-FRET formats the signal depends on donor and acceptor labels being close together.)

Turning to `O=C1/C(=C/C=C/c2ccco2)SC(=S)N1c1ccc(O)cc1`, the concentration for half-maximal inhibition (IC50) – broadly, the concentration needed to halve the response being measured – is 2660 nM.
Next, `O=c1c(O)c(-c2ccc(O)c(O)c2)oc2cc(O)cc(O)c12`: 498 nM; `O=c1cc(-c2ccc(O)c(O)c2)oc2c(C3O[C@H](CO)[C@@H](O)[C@H](O)[C@H]3O)c(O)cc(O)c12` (some centres not stated): 1260 nM; `NC1=NC(=O)/C(=C\c2ccco2)S1`: 3990 nM.
On to `C[C@@H]1O[C@@H](Oc2c(-c3ccc(O)c(O)c3)oc3cc(O)cc(O)c3c2=O)[C@H](O)[C@H](O)[C@H]1O`, for which the IC50 was 2610 nM.
Consider `COCCN=c1scc(-c2ccco2)n1/N=C/c1ccc(O)c(O)c1O`, for which the IC50 is 3260 nM.
The result for `COP(=O)(OC)c1ccc(NCc2cc(O)ccc2O)cc1` reads “inactive”.
Next, `O=C1c2cc(O)c(O)cc2OC(c2ccc(O)c(O)c2)C1O` (configuration not stated): 4690 nM.
Next, `CC(=O)c1ccc2c(c1)C1C=CCC1C(C(=O)O)N2` (configuration not stated): 575 nM; `Nc1c(C(=O)N/N=C/c2cccnc2)oc2nc(-c3ccco3)cc(-c3ccco3)c12`: > 36600 nM (inactive); `CN(C)c1ccc2cc(S(=O)(=O)O)cc(O)c2c1`: 4480 nM.
With `O=C(N/N=C/c1cccnc1)c1cc(O)c(O)c(O)c1`, the IC50 entry is “inactive”.
The result for `CC(C(=O)O)N1C(=O)/C(=C/C=C/c2ccco2)SC1=S` (configuration not stated) reads 452 nM.
In the case of `CCOc1ccc(Nc2ccc(N)c(S(=O)(=O)O)c2)cc1`, the IC50 result was “inactive”.
The result for `Oc1ccc(NCc2cccc(OCc3ccccc3)c2)cc1` reads > 36500 nM (inactive); that for `CCCCCn1c(NC(=O)c2ccco2)c(S(=O)(=O)c2ccc(C)cc2)c2nc3ccccc3nc21`, “inactive”; that for `O=S(=O)(O)c1cc(O)c2cc(Nc3ccccc3)ccc2c1`, 2730 nM.
Next, `O=C1CCCC(O)=C1N=Nc1ccc(C(=O)O)cc1`: 2410 nM; `COc1ccc(/C=C/C(=O)N2CCCc3ccccc32)cc1`: > 36600 nM (inactive).
Next, `Oc1ccc(/C=N/N=C/c2ccc(O)c(O)c2)cc1O`: 191 nM.
Consider `COc1c(-c2ccc(O)c(O)c2)oc2cc(O)cc(O)c2c1=O`, for which the IC50 is 1900 nM.
With `O=c1c(OC2OC(CO)C(O)C(O)C2OC2OC(CO)C(O)C(O)C2O)c(-c2ccc(O)cc2)oc2cc(O)cc(O)c12` (configuration not stated), the concentration for half-maximal inhibition (IC50) is 8050 nM.
Take `Cn1c(N)c(C(=O)COC(=O)c2cc(-c3ccco3)nc3ccccc23)c(=O)n(C)c1=O`: the IC50 is 2570 nM.
Next, `C/C(=N/NC(=O)c1cc(O)c(O)c(O)c1)c1ccc([N+](=O)[O-])cc1`: 2120 nM; `C/C(=N\NC(=O)c1cc(O)ccc1O)c1cccc(NC(=O)c2ccc(Cl)cc2)c1`: “inactive”.
As for `CCOc1ccc(NC(=O)CN(C)C(=O)c2cc3c(s2)CCC3)cc1OCC`, the IC50 was 9570 nM.
Consider `Nc1ccc2nc3c(=O)[nH]c(=S)[nH]c3nc2c1`, for which the half-inhibitory concentration (IC50) was 1360 nM.
Next, `C=C(C)C(=O)Nc1cccc(C2=NOC3(C2)C[C@@H](C(N)=O)N(C(=O)C(=C)C)C3)c1` (some centres not stated): 5920 nM; `Cc1cc(/C=C2\C(=O)NC(=O)N(c3ccccc3F)C2=O)c(C)n1-c1cc(C(=O)O)cc(C(=O)O)c1`: 815 nM.
Next, `NC1=CC(=O)C(=O)c2cccnc21`: 2140 nM; `Cc1sc2nc(SCC(=O)c3ccc(O)c(O)c3)n(C)c(=O)c2c1C`: 3630 nM; `CC1OC(Oc2c(-c3cc(O)c(O)c(O)c3)oc3cc(O)cc(O)c3c2=O)C(O)C(O)C1O` (configuration not stated): 3090 nM.
Take `O=c1[nH]c2cc3c(cc2cc1CN(Cc1cccnc1)Cc1nnnn1Cc1ccco1)OCCO3`: the IC50 entry was “inactive”.
Take `CC1=CC(C)(C)N2C(=O)C(=Nc3ccc(O)cc3)c3cccc1c32`: the IC50 is > 12200 nM (inactive).
Next, `C(=C\c1ccco1)/c1ccc2ccccc2n1`: > 36500 nM (inactive); `N#C/C(=C\c1ccc(O)c(O)c1)C(=O)Nc1cccc2ncccc12`: 1070 nM; `O=C1Nc2ccccc2/C1=N\N=C\c1ccc(O)c(O)c1`: 696 nM.
On to `Cc1cc2nc3ccc(N(C)C)cc3nc2cc1N`, for which the IC50 is > 36600 nM (inactive).
The result for `C[C@@H]1O[C@@H](O[C@@H]2[C@@H](O)[C@H](OCCc3ccc(O)c(O)c3)O[C@H](CO)[C@H]2OC(=O)/C=C/c2ccc(O)c(O)c2)[C@H](O)[C@H](O)[C@H]1O` reads 1410 nM; that for `CN(C)[C@@H]1C(=O)C(C(N)=O)=C(O)[C@@]2(O)C(=O)C3=C(O)c4c(O)cccc4[C@@](C)(O)C3[C@H](O)C12` (some centres not stated), “inactive”; that for `Cc1cc(=O)n2[nH]c(-c3ccsc3-n3c(C)ccc3C)cc2n1`, “inactive”.
Regarding `O=c1cc2c(=O)oc3cc(O)c(O)oc3c2c(O)c1O`, the IC50 is 244 nM.
Next, `Cc1ccc(/C=C2/C(=O)c3ccc(C(=O)O)cc3C2=O)o1`: 2280 nM; `O=[N+]([O-])c1ccccc1NC(=S)N/N=C/c1ccc(O)c(O)c1`: 2510 nM; `Oc1cccc(CN2CCOCC2)c1O`: “inactive”.
As to `CC(C)(CS(=O)(=O)[O-])NC(=O)CC[N+](C)(C)CCO`, the concentration for half-maximal inhibition (IC50) is 3060 nM.
Next, `c1coc(-c2ccc3nncn3c2)c1`: 1180 nM; `COc1ccc(NC(=O)CSc2sc3c(O)cc(=O)[nH]c3c2C#N)c(OC)c1`: “inactive”.
Next, `O=C(NN1C(=O)/C(=C/C=C/c2ccco2)SC1=S)c1ccccc1O`: 1850 nM; `C[C@@H]1O[C@@H](Oc2c(-c3cc(O)c(O)c(O)c3)oc3cc(O)cc(O)c3c2=O)[C@H](O)[C@H](O)[C@H]1O`: 1640 nM.
The result for `O=C(O)c1cccc(-n2cccc2/C=C2/NC(=O)N(c3ccc(Cl)cc3)C2=O)c1` reads 794 nM; that for `COc1ccc2[nH]c3c(C)c4cc[n+](C)cc4c(C)c3c2c1`, 5110 nM.
Take `S=C(Nc1ccc(N2CCOCC2)cc1)Nc1ccc2nc(-c3ccco3)c(-c3ccco3)nc2c1`: the IC50 is > 36500 nM (inactive).
Turning to `COc1c(O)cc2oc(-c3ccc(O)c(O)c3)cc(=O)c2c1O`, the IC50 is 1840 nM.
Next, `O=C(N/N=C/c1ccc(O)cc1O)C(=O)N/N=C/c1ccc(O)cc1O`: 177 nM.
Next, `CN(C)c1ccc2nc3ccc(=O)cc-3sc2c1`: > 36500 nM (inactive); `O=C(CCc1ccc(S(=O)(=O)N2CCOCC2)cc1)N/N=C/c1ccc(O)c(O)c1O`: “inactive”; `O=S(=O)(O)c1ccc(O)c2cc(Nc3ccccc3)ccc12`: 723 nM.
The result for `COc1ccc(C(=O)CSc2nnc(-c3ccco3)c(-c3ccco3)n2)cc1` reads 6450 nM.
`Oc1ccc(C[C@H]2NCCc3cc(O)c(O)cc32)cc1O`: the IC50 is 3230 nM.
Take `O=C(CCCN1C(=O)/C(=C/c2ccco2)SC1=S)Nc1ccccc1C(=O)O`: the IC50 was 8370 nM.
Next, `O=C(CCN1C(=O)/C(=C/c2ccco2)SC1=S)Nc1ccc(O)cc1C(=O)O`: “inactive”.
The result for `C=CCn1c(C)cc(C(=O)Cn2ncc(Cl)c(Cl)c2=O)c1C` reads “inactive”; that for `CCN(CC)CCCNc1ccc2ncn3c4ccc(O)cc4c(=O)c1c23`, > 36500 nM (inactive).
The result for `O=C(O)c1ccc(-n2c(-c3cc(-c4ccco4)[nH]n3)n[nH]c2=S)cc1` reads 7320 nM.
`O=S(=O)(O)c1cc(O)c(N=Nc2ccc(O)cc2O)c2ccccc12`: the IC50 entry was “inactive”.
Next, `O=C(NCc1ccco1)c1cc2ccc(O)cc2oc1=O`: “inactive”; `O=C(O)c1cccc2cccc(-c3c4ccc(=O)c(O)c-4oc4c(O)c(O)ccc34)c12`: 369 nM.
The result for `C=C(C)C(=O)Nc1cccc(C2=NOC3(C2)C[C@@H](C(N)=O)N(C(=O)C2(C)CC2)C3)c1` (some centres not stated) reads 2390 nM; that for `O=S(=O)(O)c1cc(Cl)cc(N=Nc2ccc(O)cc2O)c1O`, 9940 nM.
The result for `Nc1nc(-c2ccco2)c(-c2ccco2)s1` reads > 36500 nM (inactive); that for `O=C(O)C(Cc1ccccc1)N1C(=O)/C(=C/C=C/c2ccco2)SC1=S` (configuration not stated), 2740 nM; that for `CC(=O)Nc1ccc(C(=O)/C=C/c2ccco2)cc1`, 9780 nM.
With `C=C(C)C(=O)Nc1cccc(C2=NOC3(C2)C[C@H](C(N)=O)N(C(=O)/C=C/C)C3)c1` (some centres not stated), the concentration for half-maximal inhibition (IC50) is 4720 nM.
Next, `CCOC(=O)c1cc2c(=Cc3ccc(N(C)C)cc3)c3ccccc3n2[n+]1C`: “inactive”; `C=CC(=O)N1C/C(=C/c2ccc(F)cc2)C(=O)/C(=C\c2ccc(F)cc2)C1`: “inactive”.
For the compound `NC(=S)NN=Cc1nccc2c(N)cccc12`, the IC50 was > 36500 nM (inactive).
Next, `N#Cc1c(SCC(=O)Nc2nccs2)sc2c(O)cc(=O)[nH]c12`: 8630 nM; `O=[N+]([O-])c1cc(Br)c(O)c(C=Nc2ccc(N3CCOCC3)cc2)c1`: “inactive”; `COc1ccc(NC(=S)Nc2ccc3nsnc3c2)cc1`: “inactive”.
As to `N#C/C(=C\c1ccc(O)c(O)c1)C(=O)c1ccc(O)c(O)c1`, the IC50 is 79.5 nM.
The result for `O=C(Cc1nnc(NC(=O)c2ccccc2)s1)N/N=C\c1ccc(O)c(O)c1` reads 2200 nM; that for `C=C1c2cccc(O)c2C(=O)C2C(=O)[C@]3(O)C(=O)C(C(N)=O)C(=O)[C@@H](N(C)C)[C@@H]3[C@@H](O)[C@H]12` (some centres not stated), 4760 nM.
With `O=C(O)c1ccc2nc(-c3ccco3)c(-c3ccco3)nc2c1`, the IC50 is 1920 nM.
The result for `COc1cc(C)cc(C(=O)O)c1C1=C(O)c2cccc(O)c2C(=O)C1=O` reads 4870 nM; that for `COC(=O)c1cc(O)cc(OC)c1Oc1cc(C)cc(O)c1C(=O)O`, 2590 nM; that for `COc1ccc(/C=C2\C(=O)NC(=O)c3ccccc32)cc1OC`, 3940 nM.
Regarding `NC(=O)c1ccc(N=Cc2c(O)n(Cc3ccco3)c(=O)[nH]c2=O)cc1`, the IC50 entry is “inactive”.
Next, `NC1=C(Cl)C(=O)c2ccc(S(N)(=O)=O)cc2C1=O`: 429 nM; `O=c1c(O)c(-c2ccc(O)c(O)c2)oc2cc(O)ccc12`: 378 nM; `Cc1cnc(C=NNC(N)=S)c2cccc(N)c12`: “inactive”.
In the case of `O=C(Nc1nc(-c2ccco2)c(-c2ccco2)s1)C1CC(=O)N(c2ccc3c(c2)OCCO3)C1` (configuration not stated), the IC50 result was “inactive”.
